Assay results reported in US9156877B2, “17-hydroxy-17-pentafluorethyl-estra-4,9(10)-dien-11-benzylidene derivatives, methods for the production thereof and use thereof for treating diseases” (Bayer Intellectual Property GmbH, priority 2009, dated 2015).
pIC50: −log10 of the molar value. Values after ≈ are worked out from the molar mass of the structure shown.

What was measured:
[1] = biological target: T1, human progesterone receptor A (Homo sapiens, UniProt P06401); experiment: Progesterone receptor-antagonistic action in stably transfected SK-N-MC cells with MMTV-LUC reporter (PR-A); type: cell-based; details: antagonistic potency against 0.1 nmol/l promegestone, 24 hours, luciferase
T1 construct: expressed in transfected cells; host or cells: SK-N-MC human neuroblastoma cells, stably transfected with pRChPR-A-neo and pMMTV-LUC
T1 sequence (P06401 1-769 isoform P06401-2): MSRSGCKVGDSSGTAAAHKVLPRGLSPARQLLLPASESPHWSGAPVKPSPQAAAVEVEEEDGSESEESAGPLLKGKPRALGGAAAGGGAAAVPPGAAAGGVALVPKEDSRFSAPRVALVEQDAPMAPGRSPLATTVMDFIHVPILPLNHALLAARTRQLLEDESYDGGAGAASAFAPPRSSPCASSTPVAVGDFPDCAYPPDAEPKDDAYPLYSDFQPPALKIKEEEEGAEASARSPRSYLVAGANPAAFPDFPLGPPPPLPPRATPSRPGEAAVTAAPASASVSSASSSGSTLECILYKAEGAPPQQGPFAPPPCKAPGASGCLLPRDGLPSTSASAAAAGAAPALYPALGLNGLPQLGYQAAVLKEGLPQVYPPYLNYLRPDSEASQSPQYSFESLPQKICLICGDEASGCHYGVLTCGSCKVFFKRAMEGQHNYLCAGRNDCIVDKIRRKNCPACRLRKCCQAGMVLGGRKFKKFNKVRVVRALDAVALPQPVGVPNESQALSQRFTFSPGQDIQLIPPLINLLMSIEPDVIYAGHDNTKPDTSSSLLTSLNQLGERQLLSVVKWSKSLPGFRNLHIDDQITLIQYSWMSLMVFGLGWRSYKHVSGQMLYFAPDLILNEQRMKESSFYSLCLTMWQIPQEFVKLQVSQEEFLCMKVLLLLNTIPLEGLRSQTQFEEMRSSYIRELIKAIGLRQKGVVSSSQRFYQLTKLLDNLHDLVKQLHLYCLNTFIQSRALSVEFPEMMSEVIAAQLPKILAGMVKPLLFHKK
Procedure, shortened: (§1)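 SK-N-MC neuroblastoma cells stably expressing human PR-A or PR-B plus MMTV-LUC reporter, treated 24 h with test compound (0.01 nmol/l–[…]). Antagonist mode used co-treatment with 0.1 nmol/l promegestone; luciferase in lysates read as RLU, expressed as % efficacy and IC50/EC50.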

[2] = biological target: T2, human progesterone receptor B (Homo sapiens, UniProt P06401); experiment: Progesterone receptor-antagonistic action in stably transfected SK-N-MC cells with MMTV-LUC reporter (PR-B); type: cell-based; details: antagonistic potency against 0.1 nmol/l promegestone, 24 hours, luciferase
T2 construct: expressed in transfected cells; host or cells: SK-N-MC human neuroblastoma cells, stably transfected with pRChPR-B-neo and pMMTV-LUC
T2 sequence (P06401 1-933): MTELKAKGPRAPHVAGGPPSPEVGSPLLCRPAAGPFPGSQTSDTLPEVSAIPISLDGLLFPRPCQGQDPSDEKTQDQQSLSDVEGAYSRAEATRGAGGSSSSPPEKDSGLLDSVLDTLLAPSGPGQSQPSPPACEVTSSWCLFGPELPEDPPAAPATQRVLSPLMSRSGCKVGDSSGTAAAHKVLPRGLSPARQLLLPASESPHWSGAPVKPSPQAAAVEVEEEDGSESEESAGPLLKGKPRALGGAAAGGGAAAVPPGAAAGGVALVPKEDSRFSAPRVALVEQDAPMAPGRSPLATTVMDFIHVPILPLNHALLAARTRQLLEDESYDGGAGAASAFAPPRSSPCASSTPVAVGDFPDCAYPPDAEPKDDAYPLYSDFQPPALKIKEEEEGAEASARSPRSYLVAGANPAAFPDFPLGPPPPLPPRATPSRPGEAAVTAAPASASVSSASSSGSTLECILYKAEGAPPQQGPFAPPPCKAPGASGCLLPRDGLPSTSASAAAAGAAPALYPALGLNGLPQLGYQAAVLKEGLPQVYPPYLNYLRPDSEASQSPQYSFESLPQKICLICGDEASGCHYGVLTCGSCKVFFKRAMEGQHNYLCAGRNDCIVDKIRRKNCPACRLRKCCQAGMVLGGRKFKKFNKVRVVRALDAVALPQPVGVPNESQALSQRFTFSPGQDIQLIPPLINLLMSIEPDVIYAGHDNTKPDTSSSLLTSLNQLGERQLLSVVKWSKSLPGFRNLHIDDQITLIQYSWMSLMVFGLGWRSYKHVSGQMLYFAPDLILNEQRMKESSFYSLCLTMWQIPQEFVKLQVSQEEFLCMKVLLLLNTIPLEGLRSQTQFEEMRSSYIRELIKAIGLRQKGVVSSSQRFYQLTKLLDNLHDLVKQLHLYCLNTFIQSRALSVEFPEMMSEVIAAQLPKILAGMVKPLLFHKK
Procedure, shortened: as §1

[3] = Metabolic stability in human liver microsomes; type: in vitro ADME; details: for Predicted clearance [l/h/kg] Human: 1 μM, well-stirred model
Protocol: (§2) Determination of Metabolic Stability in Human and Rat Liver Microsomes
Isolated human liver microsomes (HLM) were used to assess the metabolic stability of compounds of general formula I.
(§3) The incubations were conducted with 2.4 ml of HLM solution (protein content 0.5 mg/ml), 30 μl of the test compound (final concentration 1 μM) and 0.6 ml of the cofactor mixture (═NADPH-generating system composed of 3 IU glucose-6-phosphate dehydrogenase, 14.6 mg glucose-6-phosphate, 1.2 mg NADP) at 37° C. in 100 mM phosphate buffer at pH 7.4. Samples were taken at 6 time points (2-60 min) and precipitated with an equal volume of methanol, and the recovery of the test substances used in the supernatant was determined by LC-MS/MS analysis. The half-life of substance degradation determined therefrom was used to calculate what is called the intrinsic clearance of the substance in the liver microsome preparation. […] In addition, under the assumptions that (i) absorption of the test substance is 100%, and (ii) the first pass is completely reflected by liver microsome metabolism, a maximum oral bioavailability (Fmax) was calculated.

[4] = Metabolic stability in rat liver microsomes; type: in vitro ADME; details: for Predicted clearance [l/h/kg] Rat: well-stirred model
Protocol: as §2, §3

[5] = Solubility in aqueous medium at pH 7.4; type: physicochemical; details: for solubility: aqueous medium, pH 7.4, aqueous buffer; for solubility (in words): aqueous medium under physiological conditions
Excerpt: In addition, some compounds have an unusually good solubility, for this active ingredient class, in aqueous medium under physiological conditions (Table 2).

Row | pIC50 [1] | pIC50 [2] | Predicted Fmax [%] (maximum oral bioavailability) Human [3] | Predicted clearance [l/h/kg] Human [3] [L/h/kg] | Predicted Fmax [%] (maximum oral bioavailability) Rat [4] | Predicted clearance [l/h/kg] Rat [4] [L/h/kg] | solubility [5] [µg/mL] | solubility (in words) [5] | Compound
1 | 10.10 | 10.10 | 72 | 0.36 | 82 | 0.8 | 5 (≈ 9.3 µM) | – | CCO/N=C/c1ccc([C@H]2C[C@@]3(C)[C@@H](CC[C@@]3(O)C(F)(F)C(F)(F)F)[C@@H]3CCC4=CC(=O)CCC4=C32)cc1 [Example 36, 4-((8S,11R,13S,14S,17S)-17-hydroxy-13-methyl-3-oxo-17-pentafluoroethyl-2,3,6,7,8,11,12,13,14,15,16,17-dodecahydro-1H-cyclopenta[a]phenanthren-11-yl)benzaldehyde O-ethyl oxime]
2 | 9.40 | 9.89 | 100 | 0.00 | 88 | 0.5 | 203 (≈ 334 µM) | improved | C[C@]12C[C@H](c3ccc(/C=C/CC(C(=O)O)C(=O)O)cc3)C3=C4CCC(=O)C=C4CC[C@H]3[C@@H]1CC[C@@]2(O)C(F)(F)C(F)(F)F [Example 5, 2-{(E)-3-[4-((8S,11R,13S,14S,17S)-17-hydroxy-13-methyl-3-oxo-17-pentafluoroethyl-2,3,6,7,8,11,12,13,14,15,16,17-dodecahydro-1H-cyclopenta[a]phenanthren-11-yl)phenyl]allyl}malonic acid]
3 | 10.96 | 10.96 | 31 | 0.9 | 75 | 1.1 | 9 (≈ 17.4 µM) | – | C[C@]12C[C@H](c3ccc(/C=C/C#N)cc3)C3=C4CCC(=O)C=C4CC[C@H]3[C@@H]1CC[C@@]2(O)C(F)(F)C(F)(F)F [Example 14, (E)-3-[4-((8S,11R,13S,14S,17S)-17-hydroxy-13-methyl-3-oxo-17-pentafluoroethyl-2,3,6,7,8,11,12,13,14,15,16,17-dodecahydro-1H-cyclopenta[a]phenanthren-11-yl)phenyl]acrylonitrile]
4 | 10.00 | 9.52 | 52 | 0.63 | 97 | 0.1 | > 179 | improved | C[C@]12C[C@H](c3ccc(/C=C/C(=O)O)cc3)C3=C4CCC(=O)C=C4CC[C@H]3[C@@H]1CC[C@@]2(O)C(F)(F)C(F)(F)F [Example 13, (E)-3-[4-((8S,11R,13S,14S,17S)-17-hydroxy-13-methyl-3-oxo-17-pentafluoroethyl-2,3,6,7,8,11,12,13,14,15,16,17-dodecahydro-1H-cyclopenta[a]phenanthren-11-yl)phenyl]acrylic acid]

The remaining lines, values behind:

Row | Compound | pIC50 [1] | pIC50 [2] | Predicted Fmax [%] (maximum oral bioavailability) Human [3] | Predicted clearance [l/h/kg] Human [3] [L/h/kg] | Predicted Fmax [%] (maximum oral bioavailability) Rat [4] | Predicted clearance [l/h/kg] Rat [4] [L/h/kg] | solubility [5] [µg/mL] | solubility (in words) [5]
5 | C[C@]12C[C@H](c3cccc(/C=C/c4cccnc4)c3)C3=C4CCC(=O)C=C4CC[C@H]3[C@@H]1CC[C@@]2(O)C(F)(F)C(F)(F)F [Example 22, (8S,11R,13S,14S,17S)-17-hydroxy-13-methyl-17-pentafluoroethyl-11-[3-((E)-2-pyridin-3-ylvinyl)phenyl]-1,2,6,7,8,11,12,13,14,15,16,17-dodecahydrocyclopenta[a]phenanthren-3-one] | 9.52 | 9.00 | 41 | 0.8 | 77 | 1.0 | 6 (≈ 10.5 µM) | –
6 | Cc1nc2cc(/C=C/c3ccc([C@H]4C[C@@]5(C)[C@@H](CC[C@@]5(O)C(F)(F)C(F)(F)F)[C@@H]5CCC6=CC(=O)CCC6=C54)cc3)ccc2s1 [Example 10, (8S,11R,13S,14S,17S)-17-hydroxy-13-methyl-11-{4-[(E)-2-(2-methylbenzothiazol-5-yl)vinyl]phenyl}-17-pentafluoroethyl-1,2,6,7,8,11,12,13,14,15,16,17-dodecahydrocyclopenta[a]phenanthren-3-one] | 9.70 | 9.07 | 73 | 0.36 | 76 | 1.0 | 8 (≈ 12.5 µM) | –
7 | C[C@]12C[C@H](c3cccc(/C=C/c4ccccn4)c3)C3=C4CCC(=O)C=C4CC[C@H]3[C@@H]1CC[C@@]2(O)C(F)(F)C(F)(F)F [Example 21, (8S,11R,13S,14S,17S)-17-hydroxy-13-methyl-17-pentafluoroethyl-11-[3-((E)-2-pyridin-2-ylvinyl)phenyl]-1,2,6,7,8,11,12,13,14,15,16,17-dodecahydrocyclopenta[a]phenanthren-3-one] | 9.05 | 9.00 | 48 | 0.7 | 88 | 0.5 | 7 (≈ 12.3 µM) | –
8 | C[C@]12C[C@H](c3cccc(/C=C/c4ccncc4)c3)C3=C4CCC(=O)C=C4CC[C@H]3[C@@H]1CC[C@@]2(O)C(F)(F)C(F)(F)F [Example 23, (8S,11R,13S,14S,17S)-17-hydroxy-13-methyl-17-pentafluoroethyl-11-[3-((E)-2-pyridin-4-ylvinyl)phenyl]-1,2,6,7,8,11,12,13,14,15,16,17-dodecahydrocyclopenta[a]phenanthren-3-one] | 9.70 | 9.70 | 67 | 0.4 | 95 | 0.2 | 8 (≈ 14 µM) | –
